pIC50: −log10 of the molar value.
Key:
NCI-H2228 [1] = test: cells; details: Homo sapiens, NCI-H2228, 72 h
Description: Antiproliferative activity against human NCI-H2228 cells assessed as reduction in cell viability measured after 72 hrs by CCK8 assay

[2] = Toxicity in BALB/c nu/nu mouse xenografted with human NCI-H2228 cells at 50 mg/kg, po qd for 23 days; format: organism-based; details: in vivo, 552 h, time 23 day
[3] = Toxicity in BALB/c nu/nu mouse xenografted with human NCI-H2228 cells assessed as body weight loss at 50 mg/kg, po qd for 23 days; format: organism-based; details: in vivo, 552 h, time 23 day
[4] = AUC (0 to t) in human NCI-H2228 cells xenografted BALB/c nu/nu mouse plasma at 50 mg/kg, po qd for 23 days by UPLC-MS/MS analysis; format: ADME, organism-based; design: time 23 day, dose 50 mg/kg, route po
[5] = Tmax in human NCI-H2228 cells xenografted BALB/c nu/nu mouse plasma at 50 mg/kg, po qd for 23 days by UPLC-MS/MS analysis; format: ADME, organism-based; details: time 23 day
[6] = Cmax in human NCI-H2228 cells xenografted BALB/c nu/nu mouse plasma at 50 mg/kg, po qd for 23 days by UPLC-MS/MS analysis; format: ADME, organism-based; design: time 23 day, dose 50 mg/kg, route po
[7] = Drug uptake in tumor of BALB/c nu/nu mouse xenografted with human NCI-H2228 cells at 50 mg/kg, po qd for 23 days and measured at 6 hrs post-last drug dosage by UPLC-MS/MS analysis; format: ADME, organism-based, Neoplasm; details: time 23 day, read-out: Drug uptake
in vitro [8] = details: human, liver microsomes
Description: Half life in human liver microsomes at 1 uM preincubated for 5 mins followed by NADPH addition and measured for 60 mins by LC-MS/MS analysis

in vitro [9] = details: human, liver microsomes; remark: listed apart in the source
Description: Intrinsic clearance in human liver microsomes at 1 uM preincubated for 5 mins followed by NADPH addition and measured for 60 mins by LC-MS/MS analysis

in vitro [10] = details: human, liver microsomes; remark: listed apart in the source
Description: Metabolic stability of the compound in human liver microsomes assessed as parent compound remaining at 1 uM preincubated for 5 mins followed by NADPH addition and measured after 60 mins by LC-MS/MS analysis

in vitro [11] = details: mouse, liver microsomes
Description: Half life in mouse liver microsomes at 1 uM preincubated for 5 mins followed by NADPH addition and measured for 60 mins by LC-MS/MS analysis

in vitro [12] = details: mouse, liver microsomes; remark: listed apart in the source
Description: Intrinsic clearance in mouse liver microsomes at 1 uM preincubated for 5 mins followed by NADPH addition and measured for 60 mins by LC-MS/MS analysis

in vitro [13] = details: mouse, liver microsomes; remark: listed apart in the source
Description: Metabolic stability of the compound in mouse liver microsomes assessed as parent compound remaining at 1 uM preincubated for 5 mins followed by NADPH addition and measured after 60 mins by LC-MS/MS analysis

NCI-H2228 [14] = test: animal or person; details: Mus musculus, NCI-H2228, po, 552 h, read-out: TGI

Molecule `Cc1cc(Nc2ncc(Cl)c(Nc3cccc4c3B(O)OC4)n2)c(OC(C)C)cc1C1CCNCC1` has a pIC50 (NCI-H2228 [1]) of 6.21.
With `COc1cc(N2CCC(N(C)C)CC2)ccc1Nc1ncc(Cl)c(Nc2cccc3c2B(O)OC3)n1` the pIC50 (NCI-H2228 [1]) was 6.20.
Molecule `COc1cc(N2CCC(N3CCN(C)CC3)CC2)ccc1Nc1ncc(Cl)c(Nc2cccc3c2B(O)OC3)n1` has a pIC50 (NCI-H2228 [1]) of 6.16.
For `COc1cc(N2CCC(N(C)C)CC2)ccc1Nc1ncc(Cl)c(Nc2ccc3c(c2)B(O)OC3)n1`, the Activity [2] was “Non-Toxic”, the Activity [3] was “Non-Toxic” and the AUC(0-t) at 552 h [4] was 15400 ng·h/mL. The Tmax [5] was 3.6 h, the Cmax [6] was 3200 ng/mL and the concentration at 552 h [7] was 1200 ng/g. The pIC50 (NCI-H2228 [1]) was 6.28, the half-life at 1 h, 1 µM (in vitro [8]) was 3.97 h and the microsomal CLint at 1 h, 1 µM (in vitro [9]) was 5.8 µL/min/mg. For the same molecule, the remaining at 1 h, 1 µM (in vitro [10]) was 82.6%, the half-life at 1 h, 1 µM (in vitro [11]) was 0.633 h and the microsomal CLint at 1 h, 1 µM (in vitro [12]) was 36.5 µL/min/mg. It also gave a remaining at 1 h, 1 µM (in vitro [13]) of 32.8% and an inhibition in vivo at 50 mg/kg (NCI-H2228 [14]) of 52%.
With `Cc1cc(Nc2ncc(Cl)c(Nc3ccc4c(c3)B(O)OC4)n2)c(OC(C)C)cc1C1CCNCC1` the pIC50 (NCI-H2228 [1]) was 5.59.
With `COc1cc(N2CCC(N3CCN(C)CC3)CC2)ccc1Nc1ncc(Cl)c(Nc2ccc3c(c2)B(O)OC3)n1` the pIC50 (NCI-H2228 [1]) was 5.95.
With `COc1cc(N2CCN(C)CC2)ccc1Nc1ncc(Cl)c(Nc2ccc3c(c2)B(O)OC3)n1` the pIC50 (NCI-H2228 [1]) was 6.08, the half-life at 1 h, 1 µM (in vitro [8]) was 2.97 h and the microsomal CLint at 1 h, 1 µM (in vitro [9]) was 7.8 µL/min/mg. The remaining at 1 h, 1 µM (in vitro [10]) was 77.8%, the half-life at 1 h, 1 µM (in vitro [11]) was 0.725 h and the microsomal CLint at 1 h, 1 µM (in vitro [12]) was 31.9 µL/min/mg. For the same molecule, the remaining at 1 h, 1 µM (in vitro [13]) was 37.4%.

— ChEMBL document CHEMBL5236584, “Design and synthesis of boron-containing ALK inhibitor with favorable in vivo efficacy” (Bioorg Med Chem, 2022)
